Measurements from US20260070945A1, “MACROCYCLIC IMMUNOMODULATORS” (Bristol-Myers Squibb Company, priority 2022, published 2026).
*1 amine or outer side, *2 acyl side, *3 side chain or, on linkers, in order; H or OH if unused. Where a SMILES comes first, the peptide text is derived from it. Bridges are numbered along the chain shown (N, C = ends). [ ]: non-standard residue; d: D form. The star is where a group is joined. ξ: configuration not given here. Phe(3-CF3) = N[C@@H](Cc1cccc(C(F)(F)F)c1)C(=O)O; Phe(4-COOH) = N[C@@H](Cc1ccc(C(=O)O)cc1)C(=O)O; Bip = N[C@@H](Cc1ccc(-c2ccccc2)cc1)C(=O)O; NH(CH2)14COOH = O=C(O)CCCCCCCCCCCCCCN*; Phe(3-Me) = Cc1cccc(C[C@H](N)C(=O)O)c1; γGlu = O=C(O)[C@H](CCC(=O)[*:2])N[*:1]; Val(3-OH) = CC(C)(O)[C@H](N)C(=O)O; 4Pal = N[C@@H](Cc1ccncc1)C(=O)O; Cha = N[C@@H](CC1CCCCC1)C(=O)O; Ile(3ξ) = CCC(C)[C@H](N)C(=O)O; Thr(3ξ) = CC(O)[C@H](N)C(=O)O; 12Ado = NCCCCCCCCCCCC(=O)O; NMeS = CN[C@@H](CO)C(=O)O; Carboxymethyl = O=C(O)C*; NMeA = CN[C@@H](C)C(=O)O; Orn = NCCC[C@H](N)C(=O)O; dDap = NC[C@@H](N)C(=O)O; Aun = NCCCCCCCCCCC(=O)O; Dab = NCC[C@H](N)C(=O)O; Dap = NC[C@H](N)C(=O)O; AEEA = NCCOCCOCC(=O)O; Sar = CNCC(=O)O

These compounds were tested against T1, PD-1/PD-L1 interaction (PE-labeled human PD-L1-Ig binding to Jurkat cell line over-expressing human PD-1) (Homo sapiens, UniProt Q15116) (assay: Jurkat-PD-1 Cell Binding High-Content Screening Assay (CBA)). Conditions: Jurkat-hPD-1 cells, PE-labeled PD-L1-Ig 20 nM final; read-out: Jurkat HPD1 PDL1 IC50.
T1 construct: expressed in transfected cells; host or cells: Jurkat
T1 sequence (Q15116 25-288): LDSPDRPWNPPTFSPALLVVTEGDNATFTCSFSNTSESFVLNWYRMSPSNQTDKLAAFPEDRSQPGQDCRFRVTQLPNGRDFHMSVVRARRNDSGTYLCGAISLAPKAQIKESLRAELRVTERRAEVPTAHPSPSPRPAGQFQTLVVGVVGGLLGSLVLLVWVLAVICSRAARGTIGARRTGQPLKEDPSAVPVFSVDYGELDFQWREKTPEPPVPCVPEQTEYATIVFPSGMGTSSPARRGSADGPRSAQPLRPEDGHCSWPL
Outline: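 In this imaging assay, cells in 10% FCS medium see compound for 2 h at 37 °C and then labeled ligand at 20 nM final for 1 h. Paraformaldehyde fixation, Hoechst 33342 staining and dPBS washes precede image capture.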
In the case of `CC(C)C[C@@H]1NC(=O)[C@H](Cc2c[nH]c3ccccc23)NC(=O)[C@H](CC(=O)O)NC(=O)[C@H](Cc2ccc(C(=O)O)cc2)NC(=O)[C@H](Cc2ccc(OCC(=O)O)cc2)NC(=O)CSC[C@@H](C(=O)N[C@@H](CCCN)C(=O)NCCOCCOCC(=O)NCCCCCCCCCCC(=O)O)NC(=O)[C@H](CO)NC(=O)[C@H](C(C)C)NC(=O)[C@H](CC2CCCCC2)NC(=O)[C@H](CCN)NC(=O)[C@@H](CC(C)C)NC(=O)[C@H](C)N(C)C(=O)[C@H](C(C)C)NC(=O)[C@H](Cc2ccc(-c3ccccc3)cc2)NC1=O` [Example 2095] ({CH2CO}-Y(Carboxymethyl)[Phe(4-COOH)]DWL[Bip]V[NMeA][dL][Dab][Cha]VSC[Orn][AEEA][Aun]-OH; thioether N-14), the IC50 is reported as 9.5 nM.
`CC(C)C[C@@H]1NC(=O)[C@H](Cc2c[nH]c3ccccc23)NC(=O)[C@H](CC(=O)O)NC(=O)[C@H](Cc2ccc(C(=O)O)cc2)NC(=O)[C@H](Cc2ccc(OCC(=O)O)cc2)NC(=O)CSC[C@@H](C(=O)N[C@@H](CCCN)C(=O)NCCOCCOCC(=O)NCCCCCCCCCCCC(=O)O)NC(=O)[C@H](CO)NC(=O)[C@H](C(C)C)NC(=O)[C@H](CC2CCCCC2)NC(=O)[C@H](CCN)NC(=O)[C@@H](CC(C)C)NC(=O)[C@H](C)N(C)C(=O)[C@H](C(C)C)NC(=O)[C@H](Cc2ccc(-c3ccccc3)cc2)NC1=O` [Example 2131] ({CH2CO}-Y(Carboxymethyl)[Phe(4-COOH)]DWL[Bip]V[NMeA][dL][Dab][Cha]VSC[Orn][AEEA][12Ado]-OH; thioether N-14) was tested, and the IC50 was 19.1 nM.
`Cc1cccc(C[C@@H]2NC(=O)[C@H](CC(=O)O)NC(=O)[C@H](Cc3ccc(C(=O)O)cc3)NC(=O)[C@H](Cc3ccc(OCC(=O)O)cc3)NC(=O)CSC[C@@H](C(=O)NCCOCCOCC(=O)NCCCCCCCCCCC(=O)O)NC(=O)[C@H](CCCNC(=N)N)NC(=O)[C@H](C(C)C)NC(=O)[C@H](CC3CCCCC3)NC(=O)[C@H](CCN)NC(=O)[C@@H](CC(C)C)NC(=O)[C@H](CO)N(C)C(=O)[C@H](C(C)C)NC(=O)[C@H](Cc3ccc(-c4ccccc4)cc3)NC(=O)[C@H](CC(C)C)NC2=O)c1` [Example 2278] ({CH2CO}-Y(Carboxymethyl)[Phe(4-COOH)]D[Phe(3-Me)]L[Bip]V[NMeS][dL][Dab][Cha]VRC[AEEA][Aun]-OH; thioether N-14) showed an IC50 of 34.2 nM.
`CC(C)C[C@@H]1NC(=O)[C@H](Cc2c[nH]c3ccccc23)NC(=O)[C@H](CC(=O)O)NC(=O)[C@H](Cc2ccc(C(=O)O)cc2)NC(=O)[C@H](Cc2ccc(OCC(=O)O)cc2)NC(=O)CSC[C@@H](C(=O)NCC(=O)NCCOCCOCC(=O)N[C@@H](CCCN)C(=O)NCCCCCCCCCCC(=O)O)NC(=O)[C@H](CCCN)NC(=O)[C@H](C(C)C)NC(=O)[C@H](CC2CCCCC2)NC(=O)[C@H](CCN)NC(=O)[C@@H](CC(C)C)NC(=O)[C@H](C)N(C)C(=O)[C@H](C(C)C)NC(=O)[C@H](Cc2ccc(-c3ccccc3)cc2)NC1=O` [Example 2162] ({CH2CO}-Y(Carboxymethyl)[Phe(4-COOH)]DWL[Bip]V[NMeA][dL][Dab][Cha]V[Orn]CG[AEEA][Orn][Aun]-OH; thioether N-14) showed an IC50 of 7.8 nM.
Compound `CC(C)C[C@@H]1NC(=O)[C@H](Cc2c[nH]c3ccccc23)NC(=O)[C@H](CC(=O)O)NC(=O)[C@H](Cc2ccc(C(=O)O)cc2)NC(=O)[C@H](Cc2ccc(OCC(=O)O)cc2)NC(=O)CSC[C@@H](C(=O)N[C@@H](CCCN)C(=O)NCCOCCOCC(=O)NCCCCCCCCCCC(=O)O)NC(=O)[C@H](CO)NC(=O)[C@H](C(C)C)NC(=O)[C@H](CC2CCCCC2)NC(=O)[C@H](CCCCN)NC(=O)[C@@H](CC(C)C)NC(=O)[C@H](C)N(C)C(=O)[C@H](C(C)C)NC(=O)[C@H](Cc2ccc(-c3ccccc3)cc2)NC1=O` [Example 2133] ({CH2CO}-Y(Carboxymethyl)[Phe(4-COOH)]DWL[Bip]V[NMeA][dL]K[Cha]VSC[Orn][AEEA][Aun]-OH; thioether N-14) has an IC50 of 23.4 nM.
`CCC(C)[C@@H]1NC(=O)[C@H](Cc2ccc(-c3ccccc3)cc2)NC(=O)[C@H](C(C)C)NC(=O)[C@H](Cc2c[nH]c3ccccc23)NC(=O)[C@H](CC(=O)O)NC(=O)[C@H](Cc2ccc(OCC(=O)O)cc2)NC(=O)[C@H](Cc2ccncc2)NC(=O)CSC[C@@H](C(=O)N[C@H](CN)C(=O)NCCOCCOCC(=O)N[C@@H](CCC(=O)NCCCCCCCCCCC(=O)O)C(=O)O)NC(=O)[C@H](CO)NC(=O)[C@H](C(C)C)NC(=O)[C@H](CC2CCCCC2)NC(=O)[C@H](CC(N)=O)NC(=O)[C@@H](CC(C)C)NC(=O)[C@H](C)N(C)C1=O` (stereo partly drawn) [Example 2067] ({CH2CO}-[4Pal]Y(Carboxymethyl)DWV[Bip][Ile(3ξ)][NMeA][dL]N[Cha]VSC[dDap][AEEA][γGlu][Aun]-OH; thioether N-14) gave an IC50 of 35.2 nM.
Work on `Cc1cccc(C[C@@H]2NC(=O)[C@H](CC(=O)O)NC(=O)[C@H](Cc3ccc(OCC(=O)O)cc3)NC(=O)[C@H](C(C)O)NC(=O)CSC[C@@H](C(=O)N(C)CC(=O)NCCCCCCCCCCC(=O)O)NC(=O)[C@H](C(C)O)NC(=O)[C@H](C(C)C)NC(=O)[C@H](CC3CCCCC3)NC(=O)[C@H](CCN)NC(=O)[C@@H](CC(C)C)NC(=O)[C@H](C)N(C)C(=O)[C@H](C(C)C)NC(=O)[C@H](Cc3ccc(-c4ccccc4)cc3)NC(=O)[C@H](Cc3ccc(O)cc3)NC2=O)c1` (stereo partly drawn) [Example 2262] ({CH2CO}-[Thr(3ξ)]Y(Carboxymethyl)D[Phe(3-Me)]Y[Bip]V[NMeA][dL][Dab][Cha]V[Thr(3ξ)]C[Sar][Aun]-OH; thioether N-14) yielded an IC50 of 154 nM.
Work on `Cc1cccc(C[C@@H]2NC(=O)[C@H](CC(=O)O)NC(=O)[C@H](Cc3ccc(OCC(=O)O)cc3)NC(=O)[C@H]([C@@H](C)O)NC(=O)CSC[C@@H](C(=O)N[C@@H](CCN)C(=O)NCCOCCOCC(=O)NCCCCCCCCCCC(=O)O)NC(=O)[C@H]([C@@H](C)O)NC(=O)[C@H](C(C)C)NC(=O)[C@H](CC3CCCCC3)NC(=O)[C@H](CCC(=O)O)NC(=O)[C@@H](CC(C)C)NC(=O)[C@H](C)N(C)C(=O)[C@H](Cc3ccc(OCC(=O)O)cc3)NC(=O)[C@H](Cc3ccc(-c4ccccc4)cc3)NC(=O)[C@H](Cc3ccc(OCC(=O)O)cc3)NC2=O)c1` [Example 1375] ({CH2CO}-TY(Carboxymethyl)D[Phe(3-Me)]Y(Carboxymethyl)[Bip]Y(Carboxymethyl)[NMeA][dL]E[Cha]VTC[Dab][AEEA][Aun]-OH; thioether N-14) yielded an IC50 of 31.8 nM.
With `Cc1cccc(C[C@@H]2NC(=O)[C@H](CC(=O)O)NC(=O)[C@H](Cc3ccc(OCC(=O)O)cc3)NC(=O)[C@H](CN)NC(=O)CSC[C@@H](C(=O)NCC(=O)N[C@@H](CC(=O)O)C(=O)NCCCCCCCCCCC(=O)O)NC(=O)[C@H](CO)NC(=O)[C@H](C(C)C)NC(=O)[C@H](CC(C)C)NC(=O)[C@H](CC(N)=O)NC(=O)[C@@H](CC(C)C)NC(=O)[C@H](C)N(C)C(=O)[C@H](C(C)C)NC(=O)[C@H](Cc3ccc(-c4ccccc4)cc3)NC(=O)[C@H](CC(C)C)NC2=O)c1` [Example 1061] ({CH2CO}-[Dap]Y(Carboxymethyl)D[Phe(3-Me)]L[Bip]V[NMeA][dL]NLVSCGD[Aun]-OH; thioether N-14) the IC50 was 42.9 nM.

Same assay, conditions: PE-labeled PD-L1-Ig 20 nM final, Jurkat-hPD-1 cells; read-out: Jurkat HPD1 PDL1 IC50
`Cc1cccc(C[C@@H]2NC(=O)[C@H](CC(=O)O)NC(=O)[C@H](Cc3ccc(C(=O)O)cc3)NC(=O)[C@H](C(C)O)NC(=O)CSC[C@@H](C(=O)N[C@@H](CCN)C(=O)NCCOCCOCC(=O)NCCOCCOCC(=O)NCCCCCCCCCCC(=O)O)NC(=O)[C@H](CO)NC(=O)[C@H](C(C)(C)O)NC(=O)[C@H](CC3CCCCC3)NC(=O)[C@H](CCN)NC(=O)[C@@H](CC(C)C)NC(=O)[C@H](C)N(C)C(=O)[C@H](Cc3ccc(C(=O)O)cc3)NC(=O)[C@H](Cc3ccc(-c4ccccc4)cc3)NC(=O)[C@H](Cc3ccc(C(=O)O)cc3)NC2=O)c1` (stereo partly drawn) [Example 2527] ({CH2CO}-[Thr(3ξ)][Phe(4-COOH)]D[Phe(3-Me)][Phe(4-COOH)][Bip][Phe(4-COOH)][NMeA][dL][Dab][Cha][Val(3-OH)]SC[Dab][AEEA][AEEA][Aun]-OH; thioether N-14) was tested, and the IC50 was 1.8 nM.
Work on `Cc1cccc(C[C@@H]2NC(=O)[C@H](CC(=O)O)NC(=O)[C@H](Cc3ccc(OCC(=O)O)cc3)NC(=O)[C@H](Cc3ccncc3)NC(=O)CSC[C@@H](C(=O)N[C@@H](CCN)C(=O)NCCOCCOCC(=O)NCCCCCCCCCCC(=O)O)NC(=O)[C@H](CCC(=O)O)NC(=O)[C@H](C(C)(C)O)NC(=O)[C@H](CC3CCCCC3)NC(=O)[C@H](CCN)NC(=O)[C@@H](CC(C)C)NC(=O)[C@H](C)N(C)C(=O)[C@H](Cc3ccc(C(=O)O)cc3)NC(=O)[C@H](Cc3ccc(-c4ccccc4)cc3)NC(=O)[C@H](Cc3ccc(C(=O)O)cc3)NC2=O)c1` [Example 2485] ({CH2CO}-[4Pal]Y(Carboxymethyl)D[Phe(3-Me)][Phe(4-COOH)][Bip][Phe(4-COOH)][NMeA][dL][Dab][Cha][Val(3-OH)]EC[Dab][AEEA][Aun]-OH; thioether N-14) yielded an IC50 of 11.5 nM.
In the case of `CC(=O)NCCCC[C@@H]1NC(=O)[C@H](C(C)(C)O)NC(=O)[C@H](CC2CCCCC2)NC(=O)[C@H](CCN)NC(=O)[C@@H](CC(C)C)NC(=O)[C@H](C)N(C)C(=O)[C@H](CCC(N)=O)NC(=O)[C@H](Cc2ccc(-c3ccccc3)cc2)NC(=O)[C@H](Cc2ccc(C(=O)O)cc2)NC(=O)[C@H](Cc2cccc(C(F)(F)F)c2)NC(=O)[C@H](CC(=O)O)NC(=O)[C@H](Cc2ccc(OCC(=O)O)cc2)NC(=O)[C@H](Cc2ccc(OCC(=O)O)cc2)NC(=O)CSC[C@@H](C(=O)N[C@@H](CCN)C(=O)NCCOCCOCC(=O)N[C@@H](CCC(=O)NCCOCCOCC(=O)NCCCCCCCCCCCCCCC(=O)O)C(=O)O)NC1=O` [Example 2652] ({CH2CO}-Y(Carboxymethyl)Y(Carboxymethyl)D[Phe(3-CF3)][Phe(4-COOH)][Bip]Q[NMeA][dL][Dab][Cha][Val(3-OH)]K(Ac)C[Dab][AEEA][γGlu][AEEA]-{NH(CH2)14COOH}; thioether N-14), the IC50 is reported as 47 nM.
